In one data set the target is human PHD2184-418 (Homo sapiens (Human), UniProt Q9GZT9). The data set is described as follows: PHD2 inhibitory test (fluorescence polarization, binding between PHD2 and HIF-1α). Conditions: human PHD2184-418, FITC-labeled HIF-1α556-574, 2 μM 2-oxoglutarate, 37° C. 60 minutes. The gist of the method: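 N-His-tagged human PHD2 (residues 184–418, E. coli-expressed) was preincubated with compound, then FITC-Ahx-HIF-1α556-574 peptide was added in pH 7.4 HEPES buffer with 10 μM MnCl2 and 2 μM 2-oxoglutarate. After 60 min at 37 °C, fluorescence polarization (ex 470/em 530 nm) was read. Inhibition was calculated against compound-free wells.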
(In fluorescence polarisation assays a small probe gives low polarisation when free and higher when bound to something large.)

In data set [1] the test system is TNBS induced colitis model rat. The data set is described as follows: Therapeutic effect in TNBS induced colitis model rat (intestinal permeability of FITC). The class given is in vivo. Conditions: po, 72 h, 3 mg/kg orally once a day for 3 days, SD rats, mean, test compounds-free group 0, TNBS-untreated group 100, read-out: Inhibition (%): suppressive rate on the intestinal permeability. As for the experimental part: Test Example 2 Therapeutic Effect in Colitis Model
(1) TNBS Induced Colitis Model Rat
SD rats: 8-weeks-old male SLC (Japan SLC) were used. Under pentobarbital anesthesia, 300 μL of TNBS (28 mg/mL) prepared by 50% ethanol was administered at a point 8 cm from anus in large intestine to cause inflammation. To the solvent-treated group was administrated 300 μL of 50% ethanol. Animals were fasted for 48 hours prior to administration of TNBS. Test compounds (3 mg/kg) prepared by 0.05% methylcellulose solution were orally administered once a day from next day, and it was administered for a total of 3 days. After administering for 3 days, 50 mg/kg FITC was orally administered at 4 hours after administration. Blood samples were collected from jugular vein under isoflurane anesthesia after 4 hours. The serum was centrifuged and fluorescence intensity was detected by PHERAstar FSX (BMG Labtech) to measure the concentration of FITC permeating into circulating blood through the mesentery. The suppressive rate on the intestinal permeability of test compounds was calculated based on the value of test compounds-free group as 0 and the value of TNBS-untreated group as 100.

The nature of data set [2]: Rat PK study: concentration of compounds in large intestine tissue and plasma. The following applies: male, SD, 3 mg/kg oral; for Kp at 8 h: large intestine tissue / plasma, read-out: C/P: ratio of the above Colon and Plasma; for AUC / Cmax: non-fasted; for AUC: read-out: AUC: area under the plasma test compound concentration-time curve (converted); for Cmax: read-out: Cmax: maximum plasma concentration of test compounds in the case of oral administration. The class given is in vivo. Here is the method:
Test Example 3 Concentration of Compounds in Large Intestine Tissue
Test compounds (3 mg/kg/5 mL) prepared by 0.05% methylcellulose were orally administered to non-fasted rats (SD, 8-weeks-old, male, Japan SLC). Blood samples were collected from jugular vein at 0.25, 0.5, 1, 2, 4, 6 and 8 hours after the administration. Laparotomy was performed under isoflurane anesthesia and large intestine was isolated. Collected distal large intestine (about 5 cm) was cut open, and then the large intestine was washed with saline on a dish. After washing, the large intestine was minced by a small scissors. About 150 mg thereof was moved to tube. To the tube was added 100 μL of saline, the mixture was homogenized using shake master (1000 rpm×30 minutes). Samples were prepared by the addition with quadruple volume of saline as final volume. The concentrations of the test compound in large intestine tissue and plasma were measured through a quantitative analysis using liquid chromatography-mass spectrometry (LC/MS).

Setting [3] is: large intestine tissue (distal large intestine), read-out: Colon: concentrations of the test compound in large intestine tissue after 8 hours.
Setting [4] is: plasma, read-out: Plasma: plasma test compound concentration after 8 hours.

A word on the pIC50: it is the IC50 on a negative log10 scale, so that one unit is a factor of ten.

pIC50: −log10 of the molar value. Read-outs that look alike come from different tables or passages of the source.

Chain of human PHD2184-418 (Q9GZT9 184-418): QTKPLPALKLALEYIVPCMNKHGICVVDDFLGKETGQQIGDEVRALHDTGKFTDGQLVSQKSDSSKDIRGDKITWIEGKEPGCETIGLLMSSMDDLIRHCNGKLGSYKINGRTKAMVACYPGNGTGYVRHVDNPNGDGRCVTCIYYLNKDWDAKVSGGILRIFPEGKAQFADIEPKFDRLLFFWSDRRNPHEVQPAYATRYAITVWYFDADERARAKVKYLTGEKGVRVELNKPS

On human PHD2184-418, `O=C(O)c1ccc(-c2ccc(-n3c(=O)n([C@H]4CCN(Cc5cc(C(=O)O)ccn5)C4)c4ncccc43)cc2O)cc1` [Example 45, (S)-2-((3-(1-(4′-Carboxy-2-hydroxy-[1,1′-biphenyl]-4-yl)-2-oxo-1,2-dihydro-3H-imidazo[4,5-b]pyridin-3-yl)pyrrolidin-1-yl)methyl)isonicotinic acid] showed a pIC50 of 6.57. Also, the inhibition in vivo at 3 mg/kg in data set [1] stood at 51%. Further, the concentration at 8 h in data set [2] (setting [3]) was 87 ng/g. Besides, in data set [2], the Kp at 8 h was above 87. In addition, in data set [2] (setting [4]), the concentration at 8 h is below 1 ng/mL. In data set [2] (plasma), the AUC is 6.68 ng·h/mL and the Cmax is 2 ng/mL.
Molecule `Cn1c(C(=O)O)cnc1CN1CC[C@H](n2c(=O)n(-c3ccc(-c4ccc(C(=O)O)cc4)cc3O)c3cccnc32)C1` [Example 49, (S)-2-((3-(1-(4′-Carboxy-3-hydroxy-[1,1′-biphenyl]-4-yl)-2-oxo-1,2-dihydro-3H-imidazo[4,5-b]pyridin-3-yl)pyrrolidin-1-yl)methyl)-1-methyl-1H-imidazole-5-carboxylic acid] gave a pIC50 on human PHD2184-418 of 6.92. Also, the inhibition in vivo at 3 mg/kg in data set [1] was found to be 82%. Besides, the values for the concentration at 8 h in data set [2] (setting [3]) and in data set [2] (setting [4]) were 201 ng/g and below 1 ng/mL, respectively. Also, in data set [2], the Kp at 8 h is above 201. Also, the AUC in data set [2] (plasma) is 15 ng·h/mL. Besides, the Cmax in data set [2] (plasma) turned out to be 4 ng/mL.
In the case of `O=C(O)c1ccc(-c2ccc(-n3c(=O)n([C@H]4CCN(Cc5cc(C(=O)O)ccn5)C4)c4ncccc43)cc2)cc1` [Example 43, (S)-2-((3-(1-(4′-Carboxy-[1,1′-biphenyl]-4-yl)-2-oxo-1,2-dihydro-3H-imidazo[4,5-b]pyridin-3-yl)pyrrolidin-1-yl)methyl)isonicotinic acid], the pIC50 on human PHD2184-418 was 6.70. Moreover, the inhibition in vivo at 3 mg/kg in data set [1] stood at 59%. Besides, the concentration at 8 h is 84 ng/g in data set [2] (setting [3]) and 2 ng/mL in data set [2] (setting [4]). The Kp at 8 h in data set [2] came to 42. Moreover, the AUC in data set [2] (plasma) was 35.2 ng·h/mL. In data set [2] (plasma), the Cmax came out at 8 ng/mL.
As for `Cn1c(C(=O)O)cnc1CN1CC[C@H](n2c(=O)n(-c3ccc(-c4ccc(C(=O)O)cc4)c(O)c3)c3cccnc32)C1` [Example 84, (S)-2-((3-(1-(4′-Carboxy-2-hydroxy-[1,1′-biphenyl]-4-yl)-2-oxo-1,2-dihydro-3H-imidazo[4,5-b]pyridin-3-yl)pyrrolidin-1-yl)methyl)-1-methyl-1H-imidazole-5-carboxylic acid], the pIC50 at human PHD2184-418 was 6.82. The inhibition in vivo at 3 mg/kg in data set [1] is 117%. Further, the results for the concentration at 8 h in data set [2] (setting [3]) and in data set [2] (setting [4]) were 99 ng/g and below 1 ng/mL, respectively. Further, the Kp at 8 h in data set [2] is above 99. Further, the AUC in data set [2] (plasma) was 1.27 ng·h/mL. Also, the Cmax in data set [2] (plasma) came to 1 ng/mL.
In the case of `Cn1ccnc1CN1CC[C@H](n2c(=O)n(-c3ccc(-c4ccc(C(=O)O)cc4)cc3)c3cccnc32)C1` [Example 47, (S)-4′-(3-(1-((1-Methyl-1H-imidazol-2-yl)methyl)pyrrolidin-3-yl)-2-oxo-2,3-dihydro-1H-imidazo[4,5-b]pyridin-1-yl)-[1,1′-biphenyl]-4-carboxylic acid], at human PHD2184-418, the negative-log IC50 (pIC50) was 6.39. Besides, the inhibition in vivo at 3 mg/kg in data set [1] amounted to 85%. The figures for the concentration at 8 h in data set [2] (setting [3]) and in data set [2] (setting [4]) were 317 ng/g and 18 ng/mL, respectively. For the same molecule, the Kp at 8 h in data set [2] came out at 18. In addition, the AUC in data set [2] (plasma) is 334 ng·h/mL. In data set [2] (plasma), the Cmax came to 60 ng/mL.
Regarding `Cn1ccnc1CN1CC[C@H](n2c(=O)n(-c3ccc(-c4ccc(C(=O)O)cc4)nc3)c3cccnc32)C1` [Example 41, (S)-4-(5-(3-(1-((1-Methyl-1H-imidazol-2-yl)methyl)pyrrolidin-3-yl)-2-oxo-2,3-dihydro-1H-imidazo[4,5-b]pyridin-1-yl)pyridin-2-yl)benzoic acid], the pIC50 on human PHD2184-418 was 5.84. The inhibition in vivo at 3 mg/kg in data set [1] turned out to be 74%.
`Cn1c(C(=O)O)cnc1CN1CC[C@H](n2c(=O)n(-c3ccc(-c4ccc(O)cc4)cc3)c3cccnc32)C1` [Example 82, (S)-2-((3-(1-(4′-Hydroxy-[1,1′-biphenyl]-4-yl)-2-oxo-1,2-dihydro-3H-imidazo[4,5-b]pyridin-3-yl)pyrrolidin-1-yl)methyl)-1-methyl-1H-imidazole-5-carboxylic acid] had a negative-log IC50 (pIC50) at human PHD2184-418 of 6.89. The inhibition in vivo at 3 mg/kg in data set [1] was 96%.
Turning to `Cn1c(C(=O)O)cnc1CN1CC[C@H](n2c(=O)n(-c3ccc(-c4ccc(C(=O)O)cc4)nc3)c3cccnc32)C1` [Example 85, (S)-2-((3-(1-(6-(4-Carboxyphenyl)pyridin-3-yl)-2-oxo-1,2-dihydro-3H-imidazo[4,5-b]pyridin-3-yl)pyrrolidin-1-yl)methyl)-1-methyl-1H-imidazole-5-carboxylic acid], the inhibition in vivo at 3 mg/kg in data set [1] was determined as 101%. Further, the concentration at 8 h in data set [2] (setting [3]) was 164 ng/g; in data set [2] (setting [4]), below 1 ng/mL. In addition, the Kp at 8 h in data set [2] is above 164.
In the case of `Cc1cc(C(=O)O)ccc1-c1ccc(-n2c(=O)n([C@H]3CCN(Cc4ncc(C(=O)O)n4C)C3)c3ncccc32)cn1` [Example 50, (S)-2-((3-(1-(6-(4-Carboxy-2-methylphenyl)pyridin-3-yl)-2-oxo-1,2-dihydro-3H-imidazo[4,5-b]pyridin-3-yl)pyrrolidin-1-yl)methyl)-1-methyl-1H-imidazole-5-carboxylic acid], the pIC50 on human PHD2184-418 is 6.85.
With `Cn1c(C(=O)O)cnc1CN1CC[C@@H](n2c(=O)n(-c3ccc(-c4ccc(C(=O)O)cc4)nc3)c3cccnc32)C1` [Example 88, (R)-2-((3-(1-(6-(4-Carboxyphenyl)pyridin-3-yl)-2-oxo-1,2-dihydro-3H-imidazo[4,5-b]pyridin-3-yl)pyrrolidin-1-yl)methyl)-1-methyl-1H-imidazole-5-carboxylic acid], the negative-log IC50 (pIC50) at human PHD2184-418 is 6.57.
`COC(=O)c1ccc(-c2ccc(-n3c(=O)n([C@@H]4CCN(Cc5nccn5C)C4)c4ncccc43)c(C)c2)cc1` [Example 38, Methyl (R)-3′-methyl-4′-(3-(1-((1-methyl-1H-imidazol-2-yl)methyl)pyrrolidin-3-yl)-2-oxo-2,3-dihydro-1H-imidazo[4,5-b]pyridin-1-yl)-[1,1′-biphenyl]-4-carboxylate] showed a pIC50 on human PHD2184-418 of 5.33. This pIC50 is 1.24 log units lower than that of the molecule before.
For `Cc1ccccc1-c1ccc(-n2c(=O)n([C@H]3CCN(Cc4nccn4C)C3)c3ncccc32)cc1` [Example 29, (S)-3-(1-((1-Methyl-1H-imidazol-2-yl)methyl)pyrrolidin-3-yl)-1-(2′-methyl-[1,1′-biphenyl]-4-yl)-1,3-dihydro-2H-imidazo[4,5-b]pyridin-2-one], the pIC50 on human PHD2184-418 was 5.68.
Molecule `COc1cnc2c(c1)n(-c1ccc(-c3ccc(C(=O)O)cc3)cc1)c(=O)n2[C@H]1CCN(Cc2ncc(C(=O)O)n2C)C1` [Example 24, (S)-2-((3-(1-(4′-Carboxy-[1,1′-biphenyl]-4-yl)-6-methoxy-2-oxo-1,2-dihydro-3H-imidazo[4,5-b]pyridin-3-yl)pyrrolidin-1-yl)methyl)-1-methyl-1H-imidazole-5-carboxylic acid] had a pIC50 on human PHD2184-418 of 6.96.
For `O=C(O)c1ccnc(CN2CC[C@H](n3c(=O)n(-c4ccc(-c5ccccc5)cc4)c4cccnc43)C2)c1` [Example 16, (S)-2-((3-(1-([1,1′-Biphenyl]-4-yl)-2-oxo-1,2-dihydro-3H-imidazo[4,5-b]pyridin-3-yl)pyrrolidin-1-yl)methyl)isonicotinic acid], the pIC50 on human PHD2184-418 was 6.85. This pIC50 and that of the molecule before are within 0.2 log units of each other.
Consider `COC(=O)c1ccc(-c2ccc(-n3c(=O)n([C@H]4CCN(Cc5nccn5C)C4)c4ncccc43)cc2)cc1` [Example 37, Methyl (S)-4′-(3-(1-((1-methyl-1H-imidazol-2-yl)methyl)pyrrolidin-3-yl)-2-oxo-2,3-dihydro-1H-imidazo[4,5-b]pyridin-1-yl)-[1,1′-biphenyl]-4-carboxylate], for which, on human PHD2184-418, the pIC50 is 5.20. Compared with the last molecule, the pIC50 is 1.65 log units lower.

(Values after US12077531B2, “Imidazopyridinone compound” (KISSEI PHARMACEUTICAL CO., LTD., priority 2018, dated 2024).)
